# Key:
# [1] = system: MCF-7 human breast cancer cells; test: AlamarBlue cell viability assay; type: cell-based; details: MCF-7, 72 h
# Description: The antiproliferative potential of the synthesised 3-fluoro β-lactams 26–35 and 3,3-difluoro β-lactams 36–45 was evaluated in MCF-7 human breast cancer cells using the AlamarBlue assay, with CA-4 as reference compound (Figure 3). […] The results for the preliminary in vitro antiproliferative screen for 3-fluoro β-lactam compounds (26–29), which contain different substituents at the para position in the B ring, are presented in Figure 3A.
# Cells were seeded at a density of 5 × 10^3 cells/well (MCF-7 and MDA-MB-231) and 1 × 10^4 cells/well (HEK-293T) in 96-well plates (200 μL per well). After 24 h, cells were then treated with medium alone, with vehicle (1% ethanol (v/v)) or with CA-4 or β-lactam compounds at 1 μM and 10 μM concentrations. […] Cell proliferation for MCF-7 cells was analysed with the AlamarBlue assay (Invitrogen Corp.) as previously described by us. After 72 h, AlamarBlue (10% (v/v)) was added to each well, and plates were incubated for 3–5 h at 37 °C in the dark. Fluorescence results were obtained with a 96-well fluorimeter with excitation at 530 nm and emission at 590 nm with results recorded as percentage viability relative to vehicle control (100%). Dose–response curves were obtained and IC50 values (concentration of drug resulting in 50% reduction in cell survival) were calculated using Prism (GraphPad Software, Inc., La Jolla, CA, USA).
# Figure 3 Preliminary cell viability data for 3-fluoro and 3,3-difluoro β-lactam compounds. (A) 3-Fluoro β-lactam compounds containing different para-substituent ring B 26–29; 3-fluoro β-lactam compounds containing different meta-substituent ring B 30, 32–35; (B) 3-difluoro β-lactam compounds containing different para-substituent ring B 36–39; 3-difluoro β-lactam compounds containing different meta-substituent ring B 40, 42–45 in MCF-7 breast cancer cells. Cell proliferation of MCF-7 cells was determined with an AlamarBlue assay (seeding density […] for 96-well plates). Compound concentrations of either 10 μM or 1 μM for 72 h were used to treat the cells with control wells containing vehicle ethanol (1% v/v) and CA-4 (10 μM and 1 μM). The mean value for three experiments is shown with the ± S.E.M. for three independent experiments.
# CCRF-CEM = test: NCI 60 cell line screen, Leukaemia; type: cell-based, human; details: one dose 10 µM
# T-47D = test: NCI 60 cell line screen, Breast; type: cell-based, human; details: one dose 10 µM
# SK-OV-3 = test: NCI 60 cell line screen, Ovarian; type: cell-based, human; details: one dose 10 µM
# NCI-H226 = test: NCI 60 cell line screen, NSCLung; type: cell-based, human; details: one dose 10 µM
# NCI/ADR-RES = test: NCI 60 cell line screen, Ovarian; type: cell-based, human; details: one dose 10 µM
# MCF7 = test: NCI 60 cell line screen, Breast; type: cell-based, human; details: one dose 10 µM
# RXF 393 = test: NCI 60 cell line screen, Renal; type: cell-based, human; details: one dose 10 µM
# SK-MEL-2 = test: NCI 60 cell line screen, Melanoma; type: cell-based, human; details: one dose 10 µM
# NCI-H322M = test: NCI 60 cell line screen, NSCLung; type: cell-based, human; details: one dose 10 µM
# K-562 = test: NCI 60 cell line screen, Leukaemia; type: cell-based, human
# SF-268 = test: NCI 60 cell line screen, CNS; type: cell-based, human; details: one dose 10 µM
# U251 = test: NCI 60 cell line screen, CNS; type: cell-based, human
# OVCAR-3 = test: NCI 60 cell line screen, Ovarian; type: cell-based, human; details: one dose 10 µM
# M14 = test: NCI 60 cell line screen, Melanoma; type: cell-based, human; details: one dose 10 µM
# HCC-2998 = test: NCI 60 cell line screen, Colon; type: cell-based, human; details: one dose 10 µM
# NCI-H522 = test: NCI 60 cell line screen, NSCLung; type: cell-based, human; details: one dose 10 µM
# MDA-MB-231/ATCC = test: NCI 60 cell line screen, Breast; type: cell-based, human; details: one dose 10 µM
# PC-3 = test: NCI 60 cell line screen, Prostate; type: cell-based, human; details: one dose 10 µM
# UO-31 = test: NCI 60 cell line screen, Renal; type: cell-based, human; details: one dose 10 µM
# OVCAR-5 = test: NCI 60 cell line screen, Ovarian; type: cell-based, human; details: one dose 10 µM
# EKVX = test: NCI 60 cell line screen, NSCLung; type: cell-based, human; details: one dose 10 µM
compound,measurement,setting,value
"COc1ccc(/C=C\c2cc(OC)c(OC)c(OC)c2)cc1O [CA-4, combretastatin A-4, reference compound]",IC50,"[1]; Homo sapiens, MCF7, 72 h",3 nM
same,IC50,[1],3.5 nM
"COc1ccc(C2N(c3cc(OC)c(OC)c(OC)c3)C(=O)C2(F)F)cc1F (stereo not shown) [Compound 43, 3,3-Difluoro-4-(3-fluoro-4-methoxyphenyl)-1-(3,4,5-trimethoxyphenyl)azetidin-2-one]",inhibition at 10 µM,CCRF-CEM; Homo sapiens,87%
same,Growth %,CCRF-CEM,12.96%
same,inhibition at 10 µM,"T-47D; Homo sapiens, T47D",34.3%
same,Growth %,T-47D,65.69%
same,inhibition at 10 µM,SK-OV-3; Homo sapiens,24.5%
same,Growth %,SK-OV-3,75.49%
same,inhibition at 10 µM,NCI-H226; Homo sapiens,24.5%
same,Growth %,NCI-H226,75.53%
same,inhibition at 10 µM,NCI/ADR-RES; Homo sapiens,67.1%
same,Growth %,NCI/ADR-RES,32.94%
same,inhibition at 10 µM,"MCF7; Homo sapiens, MCF7, MCF7",84.9%
same,Growth %,MCF7; MCF7,15.06%
same,Inhibition %,MCF7; MCF7,84.9%
same,IC50,"[1]; Homo sapiens, MCF7, 72 h",1650 nM
same,inhibition at 10 µM,RXF 393; Homo sapiens,50.6%
same,Growth %,RXF 393,49.36%
same,inhibition at 10 µM,SK-MEL-2; Homo sapiens,15.4%
same,Growth %,SK-MEL-2,84.61%
same,inhibition at 10 µM,NCI-H322M; Homo sapiens,8.79%
same,Growth %,NCI-H322M,91.21%
same,inhibition at 10 µM,"K-562; Homo sapiens, K562, one dose 10 µM",89.5%
same,Growth %,K-562; one dose 10 µM,10.5%
same,inhibition at 10 µM,SF-268; Homo sapiens,47.1%
same,Growth %,SF-268,52.94%
same,inhibition at 10 µM,"U251; Homo sapiens, U-251, one dose 10 µM",58.4%
same,Growth %,U251; one dose 10 µM,41.61%
same,inhibition at 10 µM,OVCAR-3; Homo sapiens,88.4%
same,Growth %,OVCAR-3,11.64%
same,inhibition at 10 µM,M14; Homo sapiens,75.8%
same,Growth %,M14,24.24%
same,inhibition at 10 µM,HCC-2998; Homo sapiens,15.8%
same,Growth %,HCC-2998,84.2%
same,inhibition at 10 µM,NCI-H522; Homo sapiens,82.5%
same,Growth %,NCI-H522,17.54%
same,inhibition at 10 µM,MDA-MB-231/ATCC; Homo sapiens,46%
same,Growth %,MDA-MB-231/ATCC,54.02%
same,inhibition at 10 µM,PC-3; Homo sapiens,64.1%
same,Growth %,PC-3,35.89%
same,inhibition at 10 µM,UO-31; Homo sapiens,46.5%
same,Growth %,UO-31,53.48%
same,inhibition at 10 µM,OVCAR-5; Homo sapiens,21.3%
same,Growth %,OVCAR-5,78.72%
same,inhibition at 10 µM,EKVX; Homo sapiens,22.3%
same,Growth %,EKVX,77.7%
